Reference: ChEMBL document CHEMBL5506017, “Brain-Permeable Immunoproteasome-Targeting Macrocyclic Peptide Epoxyketones for Alzheimer's Disease” (J Med Chem, 2024)

Key:
[1] = In vivo inhibition of LMP2 activity in BALB/c mouse blood at 40 mg/kg, iv measured after 2 hrs relative to control; assay type: functional
[2] = Mutagenicity in Salmonella typhimurium TA100 at 0.01 to 100 uM incubated for 90 mins in absence of liver S9 fraction by AMES test; assay type: toxicity; settings: salmonella enterica subsp. enterica serovar typhimurium, s9, 1.5 h, dose 0.01-100 µM
[3] = Mutagenicity in Salmonella typhimurium TA98 at 0.01 to 100 uM incubated for 90 mins in presence of liver S9 fraction by AMES test; assay type: toxicity, subcellular; settings: salmonella enterica subsp. enterica serovar typhimurium, s9, 1.5 h, dose 0.01-100 µM
[4] = Stability in human plasma; assay type: ADME, cell-free
[5] = Clearance in BALB/c mouse at 40 mg/kg, iv measured upto 1440 mins by LC-MS/MS analysis; assay type: ADME, organism-based; settings: in vivo, 24 h
[6] = Toxicity in BALB/c mouse assessed as effect on hair loss at 40 mg/kg, iv; assay type: organism-based; settings: in vivo
[7] = Metabolic stability in human liver microsomes assessed as half life at 2 uM measured upto 60 mins by LC-MS/MS analysis; assay type: ADME, Microsome; settings: 1 h
[8] = Half life in BALB/c mouse at 40 mg/kg, iv measured upto 1440 mins by LC-MS/MS analysis; assay type: ADME, organism-based; settings: in vivo, 24 h
[9] = Unbound clearance in human plasma; assay type: ADME, cell-free
[10] = Protein binding in human plasma assessed as unbound fraction; assay type: ADME, cell-free
[11] = Toxicity in BALB/c mouse assessed as tremor at 40 mg/kg, iv; assay type: organism-based; settings: in vivo
[12] = Tmax in BALB/c mouse at 40 mg/kg, iv measured upto 1440 mins by LC-MS/MS analysis; assay type: ADME, organism-based; settings: in vivo, 24 h
HMC3 = experiment: Cytotoxicity against human HMC3 cells assessed as reduction in cell viability at 30 to 100 uM incubated for 96 hrs by CellTiter 96 Aqueous One Solution Cell Proliferation Assay; assay type: toxicity, cell-based; settings: hmc3, 96 h, dose 30-100 µM
[13] = C0 in BALB/c mouse at 40 mg/kg, iv measured upto 1440 mins by LC-MS/MS analysis; assay type: ADME, organism-based; settings: in vivo, 24 h
[14] = Mutagenicity in Salmonella typhimurium TA100 at 0.01 to 100 uM incubated for 90 mins in presence of liver S9 fraction by AMES test; assay type: toxicity, subcellular; settings: salmonella enterica subsp. enterica serovar typhimurium, s9, 1.5 h, dose 0.01-100 µM
[15] = Volume of distribution at steady state in BALB/c mouse at 40 mg/kg, iv measured upto 1440 mins by LC-MS/MS analysis; assay type: ADME, organism-based; settings: in vivo, 24 h
[16] = Cmax in BALB/c mouse at 40 mg/kg, iv measured upto 1440 mins by LC-MS/MS analysis; assay type: ADME, organism-based; settings: in vivo, 24 h
[17] = Drug uptake in BALB/c mouse spleen at 40 mg/kg, iv measured after 2 hrs; assay type: ADME, organism-based; settings: in vivo

CC(C)C[C@H](NC(=O)[C@@H]1COCCCCCC(=O)N2C[C@H](F)C[C@H]2C(=O)N1)C(=O)[C@@]1(C)CO1
inhibition in vivo at 40 mg/kg [1]: 100% | Activity [2]: Non-Toxic | Activity [3]: Non-Toxic | Stability [4]: 78% | CL [5]: 4.253 L/h/kg | Activity [6]: Non-Toxic | t1/2 [7]: 38.4 min | t1/2 [8]: 25.2 min | CL free [9]: 4.32 L/h/kg | Fu [10]: 0.45% | Activity [11]: Non-Toxic | Tmax [12]: 4.98 min | Activity (HMC3): Non-Toxic | C0 [13]: 31.987 µg/mL | Activity [14]: Non-Toxic | Vdss [15]: 2.572 L/kg | Cmax [16]: 25.9 µg/mL | Drug uptake [17]: Active
